{"source": "patent US20200341000A1", "about": "“METHOD OF SCREENING COMPOUNDS FOR TREATING CNS DISORDERS” (SAGE THERAPEUTICS, INC., priority 2017, published 2020)", "key": {"[1]": {"test_system": "tonic current in dentate gyms granule cells (DGGCs)", "experiment": "Sustained (metabotropic) enhancement of tonic current in DGGCs after 15 min exposure and washout", "assay_type": "cell-based, mice", "conditions": "protocol as in FIG. 3; n=6-8 cells", "protocol": "Brain slices were prepared from 3- to 5-week-old male C57 mice. Mice were anesthetized with isoflurane, decapitated, and brains were rapidly removed and submerged in ice-cold cutting solution containing (mM): 126 NaCl, 2.5 KCl, 0.5 CaCl2, 2 MgCl2, 26 NaHCO3, 1.25 NaH2PO4, 10 glucose, 1.5 sodium pyruvate, and 3 kynurenic acid. Coronal 310 μm thick slices were cut with the vibratome VT1000S (Leica Microsystems, St Louis, Mo., USA). The slices were then transferred into incubation chamber filled with prewarmed (31-32° C.) oxygenated artificial cerebro-spinal fluid (ACSF) of the following composition (in mM): 126 NaCl, 2.5 KCl, 2 CaCl2, 2 MgCl2, 26 NaHCO3, 1.25 NaH2PO4, 10 glucose, 1.5 sodium pyruvate, 1 glutamine, 3 kynurenic acid and 0.005 GABA bubbled with 95% O2-5% CO2. Slices were allowed to recover at 32° C. for at least 1 hr before recording. Exogenous GABA was added in an attempt to standardize ambient GABA in the slice and provide an agonist source for newly inserted extrasynaptic GABAARs.\nAfter recovery, a single slice was transferred to a submerged, dual perfusion recording chamber (Warner Instruments, Hamden, Conn., USA) on the stage of an upright microscope (Nikon FN-1) with a 40× water immersion objective equipped with DIC/IR optics. Slices were maintained at 32° C. and gravity-superfused with ACSF solution throughout experimentation and perfused at rate of 2 ml/min with oxygenated (O2/CO2 95/5%) ACSF.\nWhole-cell currents were recorded from the dentate gyms granule cells (DGGCs) in 310-μm-thick coronal hippocampal slices. Patch pipettes (5-7MΩ) were pulled from borosilicate glass (World Precision Instruments) and filled with intracellular solution of the composition (in mM) as follows: 140 CsCl, 1 MgCl2, 0.1 EGTA, 10 HEPES, 2 Mg-ATP, 4 NaCl and 0.3 Na-GTP (pH=7.2 with CsOH). A 5 min period for stabilization after obtaining the whole-cell recording conformation (holding potential of −60 mV) was allowed before currents were recorded using an Axopatch 200B amplifier (Molecular Devices), low-pass filtered at 2 kHz, digitized at 20 kHz (Digidata 1440A; Molecular Devices), and stored for offline analysis.\nFor tonic current measurements, an all-points histogram was plotted for a 10 s period before and during 100 μM picrotoxin application, once the response reached a plateau level. Recordings with unstable baselines were discarded. Fitting the histogram with a Gaussian distribution gave the mean baseline current amplitude and the difference between the amplitudes before and during picrotoxin was considered to be the tonic current. The negative section of the all-points histogram which corresponds to the inward IPSCs was not fitted with a Gaussian distribution (Kretschmannova et al., 2013; Nusser and Mody, 2002). Series resistance and whole-cell capacitance were continually monitored and compensated throughout the course of the experiment. Recordings were eliminated from data analysis if series resistance increased by >20%. Spontaneous inhibitory post-synaptic currents (sIPSCs) were analyzed using the mini-analysis software (version 5.6.4; Synaptosoft, Decatur, Ga.). Minimum threshold detection was set to 3 times the value of baseline noise signal. To assess sIPSC kinetics, the recording trace was visually inspected and only events with a stable baseline, sharp rising phase, and single peak were used to negate artifacts due to event summation. Only recordings with a minimum of 200 events fitting these criteria were analyzed. sIPSCs amplitude, and frequency from each experimental condition was pooled and expressed as mean±SEM. To measure sIPSC decay, 100 consecutive events were averaged and the decay was fitted to a double exponential and the weighted decay constant (tw) was determined. Statistical analysis was performed by using Student t-test (paired and unpaired where appropriate), where p<0.05 is considered significant."}, "[2]": {"test_system": "GABAA receptor β3 subunit S408/9 phosphorylation", "experiment": "Immunoblot of β3 S408/9 phosphorylation in hippocampal slices", "assay_type": "cell-based, mice", "conditions": "100 nM", "protocol": "Hippocampi were dissected out of acute slices from 8 to 12 week old C57/B16 mice and lysed with phosphate buffer including: 20 mM Tris-HCl, 150 mM NaCl, 5 mM EDTA, 10 mM NaF, 2 mM Na3VO4, 10 mM pyrophosphate, 0.1% SDS and 1% Triton after drug treatment. The β3 subunit was isolated using immunoprecipitation with β3 antibodies, after correction for protein content and the specific activity of labeling. Results were attained by SDS/PAGE followed by autoradiography (Abramian et al., 2010). For biotinylation experiments hippocampi were dissected out of acute slices from 8 to 12 week old C57/B16 mice and incubated in artificial cerebrospinal fluid (ACSF) described above at 30° C. for 1 h for recovery before experimentation. Slices were then placed on ice and incubated for 30 min with 1 mg/mL NHS-SS-biotin (Pierce). Excess biotin was removed by a 50 mM glycine quenching buffer, followed by washing of slices three times in ice-cold ACSF. The tissue was snap frozen on dry ice for 5 min, thawed at 4° C. and lysed. The lysates were solubilized with 2% Triton at 4° C. on a rotating wheel for 1 h. The insoluble material was removed by centrifugation, and 350-500 μg of protein lysate were incubated with NeutrAvidin beads (Pierce) for 18-24 h at 4° C. Bound material was eluted with sample buffer and subjected to SDS/PAGE and then immunoblotted with the indicated antibodies. Blots were then quantified using the CCD-based ChemiDoc XRS ? system. Antibodies against the β3 subunit and the phospho-β3 antibody were generated and verified by the laboratory of S.J.M. (Vien et al., 2015).\nTo produce antibodies specific for phosphorylated S443, rabbits were injected with a synthetic peptide corresponding to residues […] of the murine α4 subunit in which the serine residue corresponding to S443 was chemically phosphorylated; […]. Hippocampal slices were treated with vehicle (Con), or SGE-516 for 20 min. Slices were immunoblotted with pS408/9, β3, or actin antibodies. The ratio of pS408/9/β3 immunoreactivity was then normalized to control slices (100%=the line).\nHippocampal slices were treated with 100 nM ALLO or P4 (progesterone), and S408/9 phosphorylation was then determined as detailed above, n=4 slices (FIG. 18D). Hippocampal slices were treated with 100 nM ORG (FIG. 18E). S408/9 phosphorylation was examined using immunoblotting."}, "[3]": {"test_system": "GABA-evoked currents in GT1-7 cells", "experiment": "Patch-clamp of GABA-induced currents in GT1-7 cells, compound in the pipette electrolyte", "assay_type": "cell-based", "conditions": "100 nM in electrolyte, GABA EC20, 20 min time course", "protocol": "Patch-clamp recordings were made from GT1-7 cells. The magnitude of the GABA-induced currents (IGABA) at EC20 agonists concentration were then measured, in the presence of control electrolyte or that supplemented with 100 nM ALLO, or 100 nM ORG OD 02-0 over a time course of 20 min."}, "[4]": {"biological_target": "T1, GABAARs composed of α4β3 subunits (Homo sapiens, UniProt P28472+P48169)", "T1 construct": "expressed in transfected cells; host or cells: HEK-293", "T1 sequence (P48169 36-554)": "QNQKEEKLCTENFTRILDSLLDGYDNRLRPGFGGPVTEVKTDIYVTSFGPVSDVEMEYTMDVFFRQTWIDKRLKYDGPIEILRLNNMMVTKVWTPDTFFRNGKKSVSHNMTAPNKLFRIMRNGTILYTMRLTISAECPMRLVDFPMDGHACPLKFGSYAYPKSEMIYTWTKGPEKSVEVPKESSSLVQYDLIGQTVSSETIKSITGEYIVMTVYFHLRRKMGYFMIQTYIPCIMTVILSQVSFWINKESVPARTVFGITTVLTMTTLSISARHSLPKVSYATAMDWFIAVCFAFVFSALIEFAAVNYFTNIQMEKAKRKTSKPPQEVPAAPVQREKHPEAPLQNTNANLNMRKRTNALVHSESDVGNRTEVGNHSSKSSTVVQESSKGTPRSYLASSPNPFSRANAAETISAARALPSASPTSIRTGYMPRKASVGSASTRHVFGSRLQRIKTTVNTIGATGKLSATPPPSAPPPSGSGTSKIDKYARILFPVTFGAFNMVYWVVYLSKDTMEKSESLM", "T1 sequence (P28472 26-473)": "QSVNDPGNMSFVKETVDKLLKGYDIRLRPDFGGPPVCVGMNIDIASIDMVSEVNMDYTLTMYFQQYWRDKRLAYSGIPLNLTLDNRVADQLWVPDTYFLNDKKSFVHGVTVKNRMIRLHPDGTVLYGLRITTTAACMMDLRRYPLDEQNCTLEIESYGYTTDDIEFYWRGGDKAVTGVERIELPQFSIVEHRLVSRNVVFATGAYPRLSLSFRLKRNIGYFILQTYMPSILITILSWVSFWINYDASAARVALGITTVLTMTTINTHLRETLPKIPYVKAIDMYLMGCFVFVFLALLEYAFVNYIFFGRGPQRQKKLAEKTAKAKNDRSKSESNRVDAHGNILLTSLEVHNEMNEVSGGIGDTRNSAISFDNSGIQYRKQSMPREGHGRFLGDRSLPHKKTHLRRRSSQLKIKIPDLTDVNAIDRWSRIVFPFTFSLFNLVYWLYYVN", "experiment": "Acute modulation of GABA-induced currents in HEK-293 cells", "assay_type": "cell-based", "design": "dose or concentration left out as unconfirmed", "conditions": "rapidly applied with GABA"}}, "note": "“Also recorded” adds a separate entry of the source."}
{"molecule": "C=C[C@]12CCC(=O)C=C1CC[C@H]1[C@@H]3CC[C@H](C(C)=O)[C@@]3(C)CC[C@@H]12", "note": "[ORG OD 02-0]", "values": [{"measurement": "amplitude and density of GABAergic tonic current at varying doses", "setting": "[1]", "result": "dosage-dependent effect; also recorded: dosage dependent effect"}, {"measurement": "S408/9 phosphorylation in hippocampal slices", "setting": "[2]", "result": "regulated"}, {"measurement": "GABA-evoked currents (IGABA) over time", "setting": "[3]", "result": "sustained increases"}, {"measurement": "acute modulation of GABA-evoked current (IGABA)", "setting": "[4]", "result": "did not acutely modulate; also recorded: does not acutely modulate"}]}
